Reference: ChEMBL document CHEMBL5126541, “Recent applications of vinyl sulfone motif in drug design and discovery” (Eur J Med Chem, 2022)

Columns and labels:
[1] = test system: SARS-CoV; test: Antiviral activity against SARS-CoV Live SARS-CoV assay and cytotoxicity assessed as reduction in viral cytopathic effect; format: functional, organism-based; details: Severe acute respiratory syndrome-related coronavirus
[2] = test system: Ebolavirus; test: Antiviral activity against Ebola virus pseudotyped infected in HEK293T cells assessed as reduction in viral cytopathic effect; format: functional, organism-based; details: Orthoebolavirus, HEK-293T
[3] = test system: A-431; test: Cytotoxicity against human A431 cells expressing EGFR incubated for 72 hrs by MTT assay; format: functional, cell-based; details: A-431, 72 h
[4] = test system: A549; test: Cytotoxicity against human A549 cells expressing EGFR incubated for 72 hrs by MTT assay; format: functional, cell-based; details: A549, 72 h
[5] = test system: NCI-H1975; test: Cytotoxicity against human NCI-H1975 cells expressing EGFR T790 mutant incubated for 72 hrs by MTT assay; format: functional, cell-based; details: NCI-H1975, 72 h
[6] = target: Telomerase reverse transcriptase (Homo sapiens, UniProt O14746); test: Inhibition of telomerase (unknown origin)
Telomerase reverse transcriptase, sequence (O14746 whole entry): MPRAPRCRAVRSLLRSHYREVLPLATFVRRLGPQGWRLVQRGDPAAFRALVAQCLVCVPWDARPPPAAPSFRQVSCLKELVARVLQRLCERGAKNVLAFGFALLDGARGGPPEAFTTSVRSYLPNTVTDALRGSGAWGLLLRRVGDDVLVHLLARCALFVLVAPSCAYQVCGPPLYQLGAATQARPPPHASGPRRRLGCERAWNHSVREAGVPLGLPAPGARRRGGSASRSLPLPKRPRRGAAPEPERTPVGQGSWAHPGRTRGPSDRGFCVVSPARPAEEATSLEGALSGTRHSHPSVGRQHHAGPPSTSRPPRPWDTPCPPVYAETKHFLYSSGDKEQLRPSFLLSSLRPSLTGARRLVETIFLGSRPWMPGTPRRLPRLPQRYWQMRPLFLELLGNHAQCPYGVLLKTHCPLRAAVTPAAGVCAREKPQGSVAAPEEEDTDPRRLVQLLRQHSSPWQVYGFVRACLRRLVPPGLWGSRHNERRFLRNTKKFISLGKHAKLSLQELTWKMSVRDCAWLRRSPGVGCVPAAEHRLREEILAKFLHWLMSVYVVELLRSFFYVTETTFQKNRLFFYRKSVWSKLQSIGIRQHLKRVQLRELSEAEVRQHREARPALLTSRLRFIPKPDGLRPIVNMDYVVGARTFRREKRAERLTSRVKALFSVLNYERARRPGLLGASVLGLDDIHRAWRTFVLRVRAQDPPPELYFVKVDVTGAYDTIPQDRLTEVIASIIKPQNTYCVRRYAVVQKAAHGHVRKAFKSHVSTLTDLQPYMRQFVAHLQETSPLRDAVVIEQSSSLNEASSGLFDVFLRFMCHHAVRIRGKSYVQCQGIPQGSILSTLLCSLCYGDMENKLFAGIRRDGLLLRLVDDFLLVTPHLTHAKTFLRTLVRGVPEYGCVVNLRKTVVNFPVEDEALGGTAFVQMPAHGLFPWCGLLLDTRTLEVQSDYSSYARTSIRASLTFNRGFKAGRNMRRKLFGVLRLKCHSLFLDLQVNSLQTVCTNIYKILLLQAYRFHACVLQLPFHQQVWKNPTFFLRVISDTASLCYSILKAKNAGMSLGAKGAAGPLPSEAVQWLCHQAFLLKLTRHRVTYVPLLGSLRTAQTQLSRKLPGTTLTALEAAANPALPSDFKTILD

[7] = test system: BV-2; test: Anti-infalmmatory activity in LPS-induced NO production in mouse BV-2 microglial cells preincubated for 3 hrs followed by LPS addition measured after 24 hrs by NO assay kit; format: functional, cell-based
[8] = Permeability of the compound across blood brain barrier by PAMPA; format: ADME, tissue-based; details: read-out: logBB (converted)
[9] = Permeability across blood brain barrier assessed as central nervous system multi-parameter optimization score; format: ADME, tissue-based
[10] = test system: HeLa; test: Cytotoxicity against human HeLa cells; format: functional, cell-based; details: pooled result: one value given for 5 cell lines, strains, targets or settings
[11] = test system: Staphylococcus aureus; test: Antimicrobial activity against Staphylococcus aureus assessed as zone of inhibition at 100 uM; format: functional
[12] = test system: Bacillus subtilis; test: Antimicrobial activity against Bacillus subtilis assessed as zone of inhibition at 100 uM; format: functional
[13] = test system: Escherichia coli; test: Antimicrobial activity against Escherichia coli assessed as zone of inhibition; format: functional
[14] = test system: Klebsiella pneumoniae; test: Antimicrobial activity against Klebsiella pneumoniae assessed as zone of inhibition; format: functional
[15] = test system: Fusarium solani; test: Antifungal activity against Fusarium solani assessed as zone of inhibition; format: functional
[16] = test system: Curvularia lunata; test: Antifungal activity against Cochliobolus lunatus assessed as zone of inhibition; format: functional
[17] = test system: Aspergillus niger; test: Antifungal activity against Aspergillus niger assessed as zone of inhibition; format: functional
[18] = species: Homo sapiens; test: Inhibition of PI3K (unknown origin) at 20 uM relative to control
[19] = test system: HUVEC; test: Antitubulin activity against HUVEC assessed as morphological changes of tube incubated for 6 hrs by inverted microscope; format: functional, cell-based; details: Homo sapiens
[20] = test system: L1210; test: Antiproliferative activity against mouse L1210 cells treated for 48 hrs; format: functional, cell-based; details: L1210, 48 h
[21] = test system: CCRF-CEM; test: Antiproliferative activity against human CEM cells treated for 96 hrs; format: functional, cell-based
[22] = test system: HeLa; test: Antiproliferative activity against human HeLa cells treated for 4 days; format: functional, cell-based; details: 96 h
[23] = test system: Human alphaherpesvirus 3; test: Antiviral activity against VZV strain Oka bearing wild type thymidine kinase assessed as reduction in virus induced cytopathogenicity; format: functional, organism-based
[24] = test system: ES-2; test: Cytotoxicity against human ES2 cells incubated for 48 hrs by MTT assay; format: functional, cell-based; details: ES-2, 48 h
[25] = Cytotoxicity against human HO-8910 cells incubated for 48 hrs by MTT assay; format: functional, cell-based; details: HO-8910, 48 h
[26] = test system: K562; test: Cytotoxicity against human K562 cells incubated for 48 hrs by MTT assay; format: functional, cell-based; details: K562, 48 h
[27] = Cytotoxicity against HBMSC cells incubated for 48 hrs by MTT assay; format: toxicity, cell-based; details: human
[28] = target: Cholinesterase (Equus caballus, UniProt P81908); test: Inhibition of horse serum BuChE preincubated for 5 mins followed by BuCh addition measured after 5 mins by Ellman's method
Cholinesterase (Equus caballus, UniProt P81908), sequence (P81908 whole entry): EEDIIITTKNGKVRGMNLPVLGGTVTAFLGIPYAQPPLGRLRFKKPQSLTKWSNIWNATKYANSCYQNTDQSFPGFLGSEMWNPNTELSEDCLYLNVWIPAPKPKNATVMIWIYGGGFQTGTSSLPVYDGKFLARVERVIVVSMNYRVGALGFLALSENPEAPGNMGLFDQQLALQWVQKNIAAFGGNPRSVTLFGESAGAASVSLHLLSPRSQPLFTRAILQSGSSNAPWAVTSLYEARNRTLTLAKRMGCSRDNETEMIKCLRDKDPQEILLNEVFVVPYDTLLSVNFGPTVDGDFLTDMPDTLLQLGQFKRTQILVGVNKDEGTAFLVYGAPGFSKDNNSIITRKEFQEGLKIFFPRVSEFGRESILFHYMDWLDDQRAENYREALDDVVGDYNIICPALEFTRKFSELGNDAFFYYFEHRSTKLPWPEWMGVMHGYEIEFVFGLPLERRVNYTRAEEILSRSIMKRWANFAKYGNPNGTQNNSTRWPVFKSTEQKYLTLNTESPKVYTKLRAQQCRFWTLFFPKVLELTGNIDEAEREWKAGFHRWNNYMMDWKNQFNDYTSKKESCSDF

[29] = target: T1, Cholinesterase (Homo sapiens, UniProt P06276); test: Inhibition of human serum BuChE preincubated for 5 mins followed by BuCh addition measured after 5 mins by Ellman's method
T1 sequence (P06276 whole entry): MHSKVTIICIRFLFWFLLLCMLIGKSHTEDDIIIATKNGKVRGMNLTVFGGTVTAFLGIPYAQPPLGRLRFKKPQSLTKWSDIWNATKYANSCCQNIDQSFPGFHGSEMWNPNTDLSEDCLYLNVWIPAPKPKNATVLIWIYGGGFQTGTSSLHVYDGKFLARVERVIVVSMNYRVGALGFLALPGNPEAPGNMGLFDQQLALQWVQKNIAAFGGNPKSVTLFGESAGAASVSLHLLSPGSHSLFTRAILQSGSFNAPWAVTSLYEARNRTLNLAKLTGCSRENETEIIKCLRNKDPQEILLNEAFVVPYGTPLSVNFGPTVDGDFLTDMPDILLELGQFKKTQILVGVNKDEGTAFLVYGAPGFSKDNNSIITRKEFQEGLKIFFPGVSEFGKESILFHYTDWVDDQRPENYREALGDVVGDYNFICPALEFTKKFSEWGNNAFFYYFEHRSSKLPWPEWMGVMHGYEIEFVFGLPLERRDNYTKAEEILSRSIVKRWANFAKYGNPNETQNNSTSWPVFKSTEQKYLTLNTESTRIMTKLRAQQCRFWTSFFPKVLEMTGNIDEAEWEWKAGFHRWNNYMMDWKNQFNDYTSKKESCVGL

[30] = target: Acetylcholinesterase (Homo sapiens, UniProt P22303); test: Inhibition of AChE (unknown origin) preincubated for 5 mins followed by […] measured after 5 mins by Ellman's method
Acetylcholinesterase, sequence (P22303 whole entry): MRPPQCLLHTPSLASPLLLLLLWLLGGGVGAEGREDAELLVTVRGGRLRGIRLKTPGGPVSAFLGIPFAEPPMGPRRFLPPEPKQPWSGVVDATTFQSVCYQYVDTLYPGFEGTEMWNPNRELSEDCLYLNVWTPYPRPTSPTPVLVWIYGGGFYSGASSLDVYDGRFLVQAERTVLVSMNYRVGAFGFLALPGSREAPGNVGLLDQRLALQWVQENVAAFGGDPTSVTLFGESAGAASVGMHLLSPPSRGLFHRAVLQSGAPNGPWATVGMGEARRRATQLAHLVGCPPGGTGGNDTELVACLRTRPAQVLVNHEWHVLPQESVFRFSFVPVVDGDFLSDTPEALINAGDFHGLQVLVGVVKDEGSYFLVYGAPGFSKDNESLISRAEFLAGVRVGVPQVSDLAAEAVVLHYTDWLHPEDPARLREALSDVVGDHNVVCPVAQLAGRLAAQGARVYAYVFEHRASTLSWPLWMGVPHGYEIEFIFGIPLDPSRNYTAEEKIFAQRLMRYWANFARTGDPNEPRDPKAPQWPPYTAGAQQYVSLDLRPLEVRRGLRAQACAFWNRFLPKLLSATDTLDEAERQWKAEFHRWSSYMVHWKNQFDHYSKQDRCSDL

[31] = target: T1, Cholinesterase; test: Binding affinity to BuChE (unknown origin) assessed as inhibition constant
[32] = test system: HT-29; test: Cytotoxicity against human HT-29 cells assessed as reduction in cell viability; format: functional, cell-based
[33] = test system: PC-3; test: Cytotoxicity against human PC-3 cells assessed as reduction in cell viability; format: functional, cell-based
[34] = test system: MeWo; test: Cytotoxicity against human MeWo cells assessed as reduction in cell viability; format: functional, cell-based
[35] = Cytotoxicity against human SB2 cells assessed as reduction in cell viability; format: functional, cell-based
[36] = test system: OVCAR-3; test: Cytotoxicity against human OVCAR-3 cells assessed as reduction in cell viability; format: functional, cell-based
[37] = test system: SK-OV-3; test: Cytotoxicity against human SK-OV-3 cells assessed as reduction in cell viability; format: functional, cell-based
[38] = test system: PC-12; test: Neuroprotection against H2O2-induced cell injury in rat PC-12 cells assessed as cell viability preincubated for 3 hrs followed by H2O2 addition measured after 5 hrs by MTT assay; format: functional; details: time 8 hrs
[39] = test system: A-375; test: Anticancer activity against human A-375 cells; format: functional, cell-based
[40] = test system: MDA-MB-231; test: Anticancer activity against human MDA-MB-231 cells; format: functional, cell-based

In the case of `CC(C)(C)N1CCN(C(=O)N[C@@H](Cc2ccccc2)C(=O)N[C@H](/C=C/S(=O)(=O)c2ccccc2)CCc2ccccc2)CC1`, the IC50 [1] is reported as 0.04 nM and the IC50 [2] is reported as 0.04 nM.

`CCCN1CCN(C(=O)N[C@@H](Cc2ccccc2)C(=O)N[C@H](/C=C/S(=O)(=O)c2ccccc2)CCc2ccccc2)CC1` showed an IC50 [1] of 0.04 nM and an IC50 [2] of 0.04 nM.

Molecule `COc1cc(/C=C/S(=O)(=O)c2ccccc2)cc(OC)c1OC` has an IC50 [3] of 33500 nM, an IC50 [4] of 54600 nM and an IC50 [5] of 30400 nM.

For `O=S(=O)(F)/C=C/c1ccc2ccccc2c1`, the IC50 [6] was under 1000 nM.

Molecule `O=S(=O)(/C=C/c1ccc(O)c(O)c1)CCCC1CCCC1` has an IC50 [7] of 1600 nM, a Kp [8] of 0.316 and an Activity [9] of 4.36.

With `COc1cc(OC)c(/C=C/S(=O)(=O)Cc2ccc(OC)c(NCC(=O)O)c2)c(OC)c1` [RIGOSERTIB SODIUM] the IC50 [10] was 10 nM.

With `O=C(c1ccc(Cl)cc1)c1c[nH]cc1S(=O)(=O)c1n[nH]cc1-c1ccccc1` the Activity [11] was over 25 mm, the Activity [12] was over 25 mm and the Activity [13] was over 20 mm. The Activity [14] was over 20 mm, the Activity [15] was over 26 mm and the Activity [16] was over 26 mm. The Activity [17] was over 26 mm.

Work on `O=S(=O)(F)/C=C/c1ccc(-c2ccccc2)cc1` yielded an IC50 [6] of under 1000 nM.

`CN1CCN(C(=O)N[C@@H](Cc2ccccc2)C(=O)N[C@H](/C=C/S(=O)(=O)c2ccccc2)CCc2ccccc2)CC1` [K-777] gave an IC50 [2] of 0.36 nM.

Molecule `COCCN1CCN(C(=O)N[C@@H](Cc2ccccc2)C(=O)N[C@H](/C=C/S(=O)(=O)c2ccccc2)CCc2ccccc2)CC1` has an IC50 [1] of 0.04 nM and an IC50 [2] of 0.04 nM.

In the case of `O=c1oc2ccc(Br)cc2cc1S(=O)(=O)Cc1ccc(F)cc1`, the inhibition [18] is reported as 50% and the IC50 [10] is reported as 29300 nM.

`O=C(N[C@H](CO)[C@H](O)c1ccc([N+](=O)[O-])cc1)C(Cl)Cl` [CHLORAMPHENICOL] gave an Activity [13] of over 35 mm and an Activity [14] of over 35 mm.

Work on `CC(=O)N1CCN(c2ccc(OCC3COC(Cn4ccnc4)(c4ccc(Cl)cc4Cl)O3)cc2)CC1` (centres undefined) [KETOCONAZOLE] yielded an Activity [15] of over 36 mm, an Activity [16] of over 36 mm and an Activity [17] of over 36 mm.

For `COc1ccc(/C=C/S(=O)(=O)c2cc(OC)c(OC)c(OC)c2)cc1N`, the IC50 [19] was 4250 nM.

In the case of `CCN1CCN(C(=O)N[C@@H](Cc2ccccc2)C(=O)N[C@H](/C=C/S(=O)(=O)c2ccccc2)CCc2ccccc2)CC1`, the IC50 [1] is reported as 0.04 nM and the IC50 [2] is reported as 0.04 nM.

Work on `CC(=O)OC[C@H]1O[C@@H](n2cc(/C(Cl)=C\S(=O)(=O)c3ccc(C)cc3)c(=O)[nH]c2=O)C[C@@H]1OC(C)=O` yielded an IC50 [20] of 5600 nM, an IC50 [21] of 11000 nM and an IC50 [22] of 23000 nM. For the same molecule, the EC50 [23] was 4000 nM.

For `O=C(N[C@H](/C=C/S(=O)(=O)c1ccccc1)CCc1ccccc1)[C@H](Cc1ccccc1)NC(=O)N1CCN(c2ccccc2)CC1`, the IC50 [1] was 0.04 nM and the IC50 [2] was 0.04 nM.

With `CC(=O)c1ccc(/C(=C\C(F)(F)F)S(=O)(=O)c2ccccc2)cc1` the IC50 [24] was 400 nM, the IC50 [25] was 400 nM and the IC50 [26] was 200 nM. It also gave an IC50 at 48 h [27] of 200 nM.

`COc1ccccc1/C=C/C=C(\Br)S(=O)(=O)F` showed an IC50 [28] of 21 nM, an IC50 [29] of 3620 nM and an IC50 [30] of 79 nM. The Ki [31] was 29 nM.

Molecule `O=c1[nH]c(=O)n([C@H]2C[C@H](O)[C@@H](CO)O2)cc1/C=C/Br` [BRIVUDINE] has an EC50 [23] of 20 nM.

Work on `C=C(CCCCCCCCCCCCCCCC)S(=O)(=O)CCC[N+](C)(C)C` yielded an IC50 [32] of 390 nM, an IC50 [33] of 390 nM and an IC50 [34] of 390 nM. The IC50 [35] was 390 nM, the IC50 [36] was 390 nM and the IC50 [37] was 390 nM.

Molecule `O=c1oc2ccc([N+](=O)[O-])cc2cc1S(=O)(=O)Cc1ccc(F)cc1` has an inhibition [18] of 50% and an IC50 [10] of 18100 nM.

Work on `O=C(c1ccc(Cl)cc1)c1c[nH]cc1S(=O)(=O)c1c(-c2ccc(Cl)cc2)noc1-c1ccccc1` yielded an Activity [11] of over 25 mm, an Activity [12] of over 25 mm and an Activity [13] of over 20 mm. It also gave an Activity [14] of over 20 mm, an Activity [15] of over 26 mm and an Activity [16] of over 26 mm. The Activity [17] was over 26 mm.

Molecule `O=S(=O)(/C=C/c1ccc(O)c(O)c1)CCCc1ccccc1` has an Activity [38] of 94.5%.

Work on `CC(C)N1CCN(C(=O)N[C@@H](Cc2ccccc2)C(=O)N[C@H](/C=C/S(=O)(=O)c2ccccc2)CCc2ccccc2)CC1` yielded an IC50 [1] of 0.04 nM and an IC50 [2] of 0.04 nM.

In the case of `O=S(=O)(F)/C=C/C=C/c1ccc(/C=C/S(=O)(=O)F)cc1`, the IC50 [39] is reported as 1580 nM, the IC50 [40] is reported as 3220 nM and the IC50 [6] is reported as under 1000 nM.
